Assay results taken from patent US20240158446A1, “CYCLIC COMPOUND HAVING SELECTIVE INHIBITORY ACTION ON KRAS OVER HRAS AND NRAS” (CHUGAI SEIYAKU KABUSHIKI KAISHA, priority 2021, published 2024).
Like-named read-outs stand apart in the source and are kept apart here. *1 amine or outer side, *2 acyl side, *3 side chain or, on linkers, in order; H or OH if unused. Where a SMILES comes first, the peptide text is derived from it. Bridges are numbered along the chain shown (N, C = ends). [ ]: non-standard residue; d: D form. The star is where a group is joined. hPhe(3-Cl-4-CF3) = N[C@@H](CCc1ccc(C(F)(F)F)c(Cl)c1)C(=O)O; X3 = CCCN([C@H](C(=O)[*:2])C1CCCC1)[*:1]; NMeGly(cPent) = CN[C@H](C(=O)O)C1CCCC1; NMeD = CN[C@@H](CC(=O)O)C(=O)O; NMeL = CN[C@@H](CC(C)C)C(=O)O; Morpholide = C1CN(*)CCO1; NMeA = CN[C@@H](C)C(=O)O; Ac5c = NC1(C(=O)O)CCCC1; Aze = O=C(O)[C@@H]1CCN1; Sar = CNCC(=O)O

Experiments:
[1] = molecular target: GDP-bound KRAS wild-type protein (Homo sapiens, UniProt P01116); assay: Binding to KRAS by surface plasmon resonance (SPR), Single Cycle Kinetics
GDP-bound KRAS wild-type protein, sequence (P01116 whole entry): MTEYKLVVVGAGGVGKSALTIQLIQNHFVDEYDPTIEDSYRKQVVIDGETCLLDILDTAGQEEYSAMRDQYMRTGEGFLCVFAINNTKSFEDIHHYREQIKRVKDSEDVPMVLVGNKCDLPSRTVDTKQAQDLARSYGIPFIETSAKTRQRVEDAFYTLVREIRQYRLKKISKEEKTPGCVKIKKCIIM

[2] = molecular target: GDP-bound NRAS wild-type protein (Homo sapiens, UniProt P01111); assay: Binding to NRAS by surface plasmon resonance (SPR), Single Cycle Kinetics; settings: for NRAS/KRAS (ratio of KD value for NRAS to KD value for KRAS): GDP-bound NRAS wild-type protein vs GDP-bound KRAS wild-type protein; for NRAS/KRAS (ratio of KD value with respect to GDP-bound NRAS wild-type protein to KD value with respect to KRAS): SPR KD ratio NRAS/KRAS, class symbols
GDP-bound NRAS wild-type protein, sequence (P01111 whole entry): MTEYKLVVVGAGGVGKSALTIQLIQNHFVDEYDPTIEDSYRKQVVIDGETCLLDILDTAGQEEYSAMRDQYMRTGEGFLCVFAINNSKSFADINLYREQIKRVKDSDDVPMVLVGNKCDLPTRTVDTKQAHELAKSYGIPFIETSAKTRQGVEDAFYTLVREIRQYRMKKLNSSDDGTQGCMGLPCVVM

[3] = molecular target: GDP-bound HRAS wild-type protein (Homo sapiens, UniProt P01112); assay: Binding to HRAS by surface plasmon resonance (SPR), Single Cycle Kinetics; settings: for HRAS/KRAS (ratio of KD value for HRAS to KD value for KRAS): GDP-bound HRAS wild-type protein vs GDP-bound KRAS wild-type protein; for HRAS/KRAS (ratio of KD value with respect to GDP-bound HRAS wild-type protein to KD value with respect to KRAS): SPR KD ratio HRAS/KRAS, class symbols
GDP-bound HRAS wild-type protein, sequence (P01112 whole entry): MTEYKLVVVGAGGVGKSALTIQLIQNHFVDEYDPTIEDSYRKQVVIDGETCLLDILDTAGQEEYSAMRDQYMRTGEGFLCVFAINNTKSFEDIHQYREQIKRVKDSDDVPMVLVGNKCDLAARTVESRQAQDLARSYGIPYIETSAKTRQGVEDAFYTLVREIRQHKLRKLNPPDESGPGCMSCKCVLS

[4] = tested on: human lung cancer strain NCI-H441;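 note: cell proliferation inhibition after four days measured by CellTiter-Glo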
[5] = SPR Single Cycle Kinetics, GDP-bound KRAS wild-type protein, 1:1 binding model, read-out: KRAS KD

## CCC[C@H]1C(=O)N[C@@H]([C@@H](C)CC)C(=O)N(C2CC2)CC(=O)N(C)[C@H]2C/C=C\CCN(C2=O)[C@@H](Cc2ccc(C)cc2)C(=O)N(C)CC(=O)N[C@@H](CCc2ccc(C(F)(F)F)c(OC)c2)C(=O)N2C[C@H](OCC)C[C@H]2C(=O)N(C)C2(CCC2)C(=O)N(C)[C@@H](C2CCCC2)C(=O)N(C)[C@H](C(=O)N2CCCC2)CC(=O)N1C [PP3098, (2S,8S,12R,14S,20S,23S,27S,30S,36S,38Z)-20-cyclopentyl-32-cyclopropyl-12-ethoxy-8-[2-[3-methoxy-4-(trifluoromethyl)phenyl]ethyl]-4,16,19,22,26,35-hexamethyl-30-[(1S)-1-methylpropyl]-27-propyl-2-(p-tolylmethyl)-23-(pyrrolidine-1-carbonyl)spiro[1,4,7,10,16,19,22,26,29,32,35-undecazatricyclo[34.5.1.0^10,14]dotetracont-38-ene-17,1′-cyclobutane]-3,6,9,15,18,21,25,28,31,34,42-undecone]
[1]; SPR, Single Cycle Kinetics, 1:1 binding model, read-out: KD value with respect to GDP-bound KRAS wild-type protein
  Kd: 2.4e-10 M
[1]; SPR, Single Cycle Kinetics, GDP-bound KRAS wild-type protein, read-out: KRAS KD
  Kd: 2.4e-10 M
[2]; SPR
  NRAS/KRAS (ratio of KD value for NRAS to KD value for KRAS): A (a compound having 10 or more and less than 20 is denoted as A)
[2]; SPR, KD(NRAS)/KD(KRAS)
  ratio of the KD value with respect to GDP-bound NRAS wild-type protein to the KD value with respect to KRAS: A (a compound having 10 or more and less than 20 is denoted as A)
[3]; SPR
  HRAS/KRAS (ratio of KD value for HRAS to KD value for KRAS): A (a compound having 10 or more and less than 20 is denoted as A)
[3]; SPR, KD(HRAS)/KD(KRAS)
  ratio of the KD value with respect to GDP-bound HRAS wild-type protein to the KD value with respect to KRAS: A (a compound having 10 or more and less than 20 is denoted as A)
[4]; read-out: NCI-H441 cell proliferation inhibitory activity, 50% proliferation inhibitory concentration (IC50 value), NCI-H441, four days, CellTiter-Glo
  IC50: 4.7 nM

## CCC[C@H]1C(=O)N[C@@H]([C@@H](C)CC)C(=O)N(C)CC(=O)N(C)[C@H]2C/C=C\CCN(C2=O)[C@@H](Cc2ccc(C(F)(F)F)cc2)C(=O)N(C)CC(=O)N[C@@H](CCc2ccc(C(F)(F)F)c(OC)c2)C(=O)N2C[C@H](OCC)C[C@H]2C(=O)NC2(CC(C)(C)C2)C(=O)N(C)[C@@H](CC2CCC2)C(=O)N(C)[C@H](C(=O)N(C)C)CC(=O)N1C [PP2764]
[1]; [5]
  Kd: 8.5e-10 M
[2]
  NRAS/KRAS (ratio of KD value with respect to GDP-bound NRAS wild-type protein to KD value with respect to KRAS): A (a compound having 10 or more and less than 20 is denoted as A)
[3]
  HRAS/KRAS (ratio of KD value with respect to GDP-bound HRAS wild-type protein to KD value with respect to KRAS): A (a compound having 10 or more and less than 20 is denoted as A)
[4]
  IC50: 55.8 nM

## CCC[C@H]1C(=O)N[C@@H]([C@@H](C)CC)C(=O)N(C2CC2)CC(=O)N(C)[C@H]2C/C=C\CCN(C2=O)[C@@H](Cc2ccc(C)cc2)C(=O)N(C)CC(=O)N[C@@H](CCc2cc(F)c(C(F)(F)F)c(F)c2)C(=O)N2C[C@H](OCC)C[C@H]2C(=O)NC2(CC(C)(C)C2)C(=O)N(C)[C@@H](CC(C)(C)C)C(=O)N(C)[C@H](C(=O)N(C)C)CC(=O)N1C [PP2718]
[1]; [5]
  Kd: 3.3e-10 M
[2]
  NRAS/KRAS (ratio of KD value with respect to GDP-bound NRAS wild-type protein to KD value with respect to KRAS): A (a compound having 10 or more and less than 20 is denoted as A)
[3]
  HRAS/KRAS (ratio of KD value with respect to GDP-bound HRAS wild-type protein to KD value with respect to KRAS): A (a compound having 10 or more and less than 20 is denoted as A)
[4]
  IC50: 7.6 nM

## CCCN1C(=O)[C@@H]2CCN2C(=O)[C@H](C)N(C)C(=O)[C@H]([C@@H](C)CC)NC(=O)[C@H](CC(C)C)N(C)C(=O)C[C@@H](C(=O)N2CCOCC2)N(C)C(=O)[C@H](C2CCCC2)N(C)C(=O)C2(CCCC2)NC(=O)[C@@H]2CCCN2C(=O)[C@H](CCc2ccc(C(F)(F)F)c(Cl)c2)NC(=O)CN(C)C(=O)[C@@H]1C1CCCC1 [PP0054] ([NMeL]I[NMeA][Aze][X3][Sar][hPhe(3-Cl-4-CF3)]P[Ac5c][NMeGly(cPent)][NMeD]-Morpholide; lactam N-11)
[1]; KRAS KD (M), SPR Single Cycle Kinetics, GDP-bound KRAS wild-type protein, 1:1 binding model
  Kd: 4.5e-09 M
[2]; SPR
  NRAS/KRAS (ratio of KD value for NRAS to KD value for KRAS): C (A compound having a KD ratio of 0.1 or more and less than 3 is denoted as C)
[3]; SPR
  HRAS/KRAS (ratio of KD value for HRAS to KD value for KRAS): C (A compound having a KD ratio of 0.1 or more and less than 3 is denoted as C)
[4]
  IC50: 82 nM

## CCO[C@@H]1C[C@H]2C(=O)NC3(CCC3)C(=O)N(C)[C@@H](C3CCCC3)C(=O)N(C)[C@H](C(=O)N3CCOCC3)CC(=O)N(C)[C@@H](CC(C)C)C(=O)N[C@@H]([C@@H](C)CC)C(=O)N3CC[C@H]3C(=O)N(C)[C@H]3CC[C@@H](C)CN(C3=O)[C@@H](Cc3ccc(C(F)(F)F)cc3)C(=O)N(C)CC(=O)N[C@@H](CCc3cc(F)c(C(F)(F)F)c(F)c3)C(=O)N2C1 [PP1373]
[1]; SPR, Single Cycle Kinetics, 1:1 binding model, GDP-bound KRAS wild-type protein, read-out: KRAS KD
  Kd: 3.5e-10 M
[2]; SPR, KD ratio class
  NRAS/KRAS (ratio of KD value for NRAS to KD value for KRAS): B (a compound having 3 or more and less than 10 is denoted as B)
[3]; SPR, KD ratio class
  HRAS/KRAS (ratio of KD value for HRAS to KD value for KRAS): B (a compound having 3 or more and less than 10 is denoted as B)
[4]
  IC50: 12.2 nM

## CCC[C@H]1C(=O)N[C@@H]([C@@H](C)CC)C(=O)N2CCC[C@H]2C(=O)N(C)[C@H]2C/C=C\CCN(C2=O)[C@@H](Cc2ccc(C(F)F)cc2)C(=O)N(C)CC(=O)N[C@@H](CCc2ccc(Cl)c(Cl)c2)C(=O)N2C[C@H](OCC)C[C@H]2C(=O)NC2(CC(C)(C)C2)C(=O)N(C)[C@@H](C(CC)CC)C(=O)N(C)[C@H](C(=O)N(C)C)CC(=O)N1C [PP2637]
[1]; [5]
  Kd: 1e-09 M
[2]
  NRAS/KRAS (ratio of KD value with respect to GDP-bound NRAS wild-type protein to KD value with respect to KRAS): AA (a compound having 20 or more is denoted as AA)
[3]
  HRAS/KRAS (ratio of KD value with respect to GDP-bound HRAS wild-type protein to KD value with respect to KRAS): A (a compound having 10 or more and less than 20 is denoted as A)
[4]
  IC50: 61.4 nM

## CCC[C@H]1C(=O)N[C@@H](CC(C)C)C(=O)N2C[C@@H](OC)C[C@H]2C(=O)N(C)[C@H]2C/C=C\CCN(C2=O)[C@@H](Cc2ccc(C)cc2)C(=O)N(C)CC(=O)N[C@@H](CCc2ccc(C(F)(F)F)c(OC)c2)C(=O)N2C[C@H](OCC)C[C@H]2C(=O)NC2(CCC2)C(=O)N(C)[C@@H](C2CCCC2)C(=O)N(C)[C@H](C(=O)N(C)C)CC(=O)N1C [PP2548]
[1]; [5]
  Kd: 7.8e-09 M
[2]
  NRAS/KRAS (ratio of KD value with respect to GDP-bound NRAS wild-type protein to KD value with respect to KRAS): A (a compound having 10 or more and less than 20 is denoted as A)
[3]
  HRAS/KRAS (ratio of KD value with respect to GDP-bound HRAS wild-type protein to KD value with respect to KRAS): B (a compound having 3 or more and less than 10 is denoted as B)
[4]
  IC50: 1050 nM

## CCC[C@H]1C(=O)N[C@@H](CC(C)C)C(=O)N2C[C@@H](OC)C[C@H]2C(=O)N(C)[C@H]2C/C=C\CCN(C2=O)[C@@H](Cc2ccc(C)cc2)C(=O)N(C)CC(=O)N[C@@H](CCc2ccc(C(F)(F)F)c(Cl)c2)C(=O)N2C[C@H](OCC)C[C@H]2C(=O)NC2(CC(C)(C)C2)C(=O)N(C)[C@@H](C2CCCC2)C(=O)N(C)[C@H](C(=O)N(C)C)CC(=O)N1C [PP2555]
[1]; [5]
  Kd: 4.1e-09 M
[2]
  NRAS/KRAS (ratio of KD value with respect to GDP-bound NRAS wild-type protein to KD value with respect to KRAS): A (a compound having 10 or more and less than 20 is denoted as A)
[3]
  HRAS/KRAS (ratio of KD value with respect to GDP-bound HRAS wild-type protein to KD value with respect to KRAS): B (a compound having 3 or more and less than 10 is denoted as B)
[4]
  IC50: 212 nM
